Article PMC12439760 (Bioorganic & medicinal chemistry, 2025)

Key:
hCB1 receptor [1] = biological target: T1, hCB1 receptor (Homo sapiens, UniProt P21554); test: hCB1 Gαq16-coupled calcium mobilization assay in CHO-K1 cells; type: cell-based; conditions: hCB1 Ca EC50, CHO cells expressing hCB1 and Gαq16, calcium mobilization
Human liver microsome = type: in vitro ADME; conditions: pooled human liver microsomes, pH 7.4
CYP1A2 = CYP1A2 induction assay in HepaRG cells; type: cell-based, human; conditions: 10 μM, 24 hrs, % of positive control 50 μM omeprazole
CYP2B6 = CYP2B6 induction assay in HepaRG cells; type: cell-based, human; conditions: 10 μM, 24 hrs, % of positive control 1 mM phenobarbital
CYP3A4 = CYP3A4 induction assay in HepaRG cells; type: cell-based, human; conditions: 10 μM, 24 hrs, % of positive control 10 μM rifampicin
[2] = Mouse pharmacokinetic study; type: in vivo, C57BL/6 mice
hCB2 receptor [3] = biological target: T2, hCB2 receptor (Homo sapiens, UniProt P34972); test: hCB2 Gαq16-coupled calcium mobilization assay in CHO-K1 cells; type: cell-based; conditions: hCB2 Ca EC50, CHO cells expressing hCB2 and Gαq16, calcium mobilization
hCB1 receptor [4] = biological target: T1, hCB1 receptor; test: [3H]CP55940 radioligand displacement, CHO cell membranes overexpressing hCB1; type: binding
hCB2 receptor [5] = biological target: T2, hCB2 receptor; test: [3H]CP55940 radioligand displacement, CHO cell membranes overexpressing hCB2; type: binding
[6] = system: CYP3A4, CYP1A2 and CYP2B6; test: Isoform-specific CYP induction assays in HepaRG cells, overall profile; type: cell-based, human; conditions: data not shown

T1 sequence (P21554 whole entry): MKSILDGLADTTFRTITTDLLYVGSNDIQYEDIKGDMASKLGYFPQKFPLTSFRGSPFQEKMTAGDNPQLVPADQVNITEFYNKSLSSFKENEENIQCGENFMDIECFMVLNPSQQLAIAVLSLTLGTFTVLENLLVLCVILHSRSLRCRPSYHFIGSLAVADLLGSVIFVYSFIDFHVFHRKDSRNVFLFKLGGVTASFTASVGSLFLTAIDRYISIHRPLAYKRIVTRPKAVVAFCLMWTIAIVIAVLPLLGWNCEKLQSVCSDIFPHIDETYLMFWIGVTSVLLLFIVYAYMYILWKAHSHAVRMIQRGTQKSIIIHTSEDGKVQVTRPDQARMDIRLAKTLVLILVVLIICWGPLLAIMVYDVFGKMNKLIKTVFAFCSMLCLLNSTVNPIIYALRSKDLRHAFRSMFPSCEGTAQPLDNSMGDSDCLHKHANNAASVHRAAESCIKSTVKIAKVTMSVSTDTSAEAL
T2 sequence (P34972 whole entry): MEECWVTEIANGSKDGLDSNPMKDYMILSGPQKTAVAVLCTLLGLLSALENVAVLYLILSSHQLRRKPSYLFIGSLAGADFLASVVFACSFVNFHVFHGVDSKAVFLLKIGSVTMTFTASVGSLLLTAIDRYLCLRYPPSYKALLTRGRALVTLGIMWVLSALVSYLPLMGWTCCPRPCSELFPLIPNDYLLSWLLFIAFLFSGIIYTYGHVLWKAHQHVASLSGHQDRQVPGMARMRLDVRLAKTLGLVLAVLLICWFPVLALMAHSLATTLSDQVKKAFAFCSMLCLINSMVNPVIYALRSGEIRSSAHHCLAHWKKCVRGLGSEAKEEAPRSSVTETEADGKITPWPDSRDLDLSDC

SMILES: CC(C)(NC(=O)c1nn(Cc2ccc(F)cc2)c2ccccc12)c1cccc(C(N)=O)c1 [Compound 24, N-[2-(3-Carbamoylphenyl)propan-2-yl]-1-[(4-fluorophenyl)methyl]-1H-indazole-3-carboxamide]
- EC50 (hCB1 receptor [1]): 25 ± 5 nM
- half-life at 1 μM (Human liver microsome): 2.05 h
- microsomal CLint at 1 μM (Human liver microsome): 5 µL/min/mg
- CYP1A2 Induction (% of Omeprazole) (CYP1A2): <1%
- CYP2B6 Induction (% of Phenobarbital) (CYP2B6): <1%
- CYP3A4 Induction (% of Rifampicin) (CYP3A4): <1%
- Max. Conc. Brain ([2]; mouse, IP 2.5 mg/kg, at 0.25 h): 1.4 ng/mL
- Max. Conc. Liver ([2]; mouse, IP 2.5 mg/kg, at 0.25 h): 650 ng/mL
- Max. Conc. Plasma ([2]; mouse, IP 2.5 mg/kg, at 0.25 h): 72 ng/mL

SMILES: CC(C)(NC(=O)c1nn(Cc2ccc(F)cc2F)c2ccccc12)c1cccc(C(N)=O)c1 [Compound 45, N-[2-(3-Carbamoylphenyl)propan-2-yl]-1-[(2,4-difluorophenyl)methyl]-1H-indazole-3-carboxamide]
- EC50 (hCB1 receptor [1]): 151 ± 32 nM
- EC50 (hCB2 receptor [3]): 35 ± 6 nM
- half-life at 1 μM (Human liver microsome): > 3.33 h
- microsomal CLint at 1 μM (Human liver microsome): < 5 µL/min/mg
- CYP1A2 Induction (% of Omeprazole) (CYP1A2): 20%
- CYP2B6 Induction (% of Phenobarbital) (CYP2B6): 6%
- CYP3A4 Induction (% of Rifampicin) (CYP3A4): 66%
- Max. Conc. Brain ([2]; mouse, PO 3 mg/kg, at 0.5 h): 11 ng/mL
- Max. Conc. Liver ([2]; mouse, PO 3 mg/kg, at 0.5 h): 920 ng/mL
- Max. Conc. Plasma ([2]; mouse, PO 3 mg/kg, at 0.5 h): 160 ng/mL
- Plasma Half-life (HL) ([2]; mouse, PO 3 mg/kg, 3 mg/kg): 7.3 h

SMILES: CC(C)(NC(=O)c1nn(CC2CCOCC2)c2ccccc12)c1cccc(C(N)=O)c1 [Compound 51, N-[2-(3-Carbamoylphenyl)propan-2-yl]-1-(oxan-4-ylmethyl)-1H-indazole-3-carboxamide]
- Ki (hCB1 receptor [4]): 150 nM
- Ki (hCB2 receptor [5]): 56 nM
- half-life at 1 μM (Human liver microsome): 3.13 h
- microsomal CLint at 1 μM (Human liver microsome): 3.3 µL/min/mg
- plasma levels ([2]; mice, 3 mg/kg po, data not shown): < 30 ng/mL
- CYP induction profile (in words) [6]: profile similar to that of 45
